According to ChEMBL document CHEMBL1201862, “PubChem BioAssay data set” (2004):
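Test compounds were applied to cells in 96-well plates for 48 hours at 5 doses. Abbreviation: GI50, concentration required for 50% inhibition of growth.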 Calls of active or inactive are those of the source. Rule as the data show it: active = GI50 up to about 1.1 µM and inactive = higher.

What was measured:
Experiment in all cases: NCI anticancer screen, dose series, 48 h
COLO 205 = system: COLO 205
EKVX = system: EKVX
SK-MEL-5 = system: SK-MEL-5
ACHN = system: ACHN
SNB-75 = system: SNB-75
HCT-15 = system: HCT-15
SK-MEL-28 = system: SK-MEL-28
SR = system: SR
K562 = system: K562
MOLT-4 = system: MOLT-4
SK-MEL-2 = system: SK-MEL-2
SF-539 = system: SF-539
NCI-H460 = system: NCI-H460
RXF 393 = system: RXF 393
MDA-MB-435 = system: MDA-MB-435
PC-3 = system: PC-3
MCF7 = system: MCF7
Hs-578T = system: Hs-578T
MDA-MB-231 = system: MDA-MB-231

SMILES | GI50 (COLO 205) | GI50 (EKVX) | GI50 (SK-MEL-5) | GI50 (ACHN) | GI50 (SNB-75) | GI50 (HCT-15) [µM] | GI50 (SK-MEL-28) | GI50 (SR) | GI50 (K562) | GI50 (MOLT-4) | GI50 (SK-MEL-2) | GI50 (SF-539) | GI50 (NCI-H460) | GI50 (RXF 393) | GI50 (MDA-MB-435) | GI50 (PC-3) | GI50 (MCF7) | GI50 (Hs-578T) | GI50 (MDA-MB-231)
O=C1[C@H]2ON(c3ccccc3)C(c3ccc(Cl)cc3Cl)[C@H]2C(=O)N1c1ccc(Cc2ccc(N3C(=O)[C@@H]4ON(c5ccccc5)C(c5ccc(Cl)cc5Cl)[C@@H]4C3=O)cc2)cc1 (stereo partly specified) | > 100 µM (inactive) | > 100 µM (inactive) | 73.1 µM (inactive) | > 100 µM (inactive) | > 100 µM (inactive) | > 100 | > 100 µM (inactive) | 44.1 µM (inactive) | > 100 µM (inactive) | > 100 µM (inactive) | > 100 µM (inactive) | > 100 µM (inactive) | > 100 µM (inactive) | – | – | – | – | – | –
O=C(c1ccc(Cl)cc1)c1ccc(OCCCOc2ccc(C(=O)c3ccc(Cl)cc3)cc2Cl)c(Cl)c1 | > 100 µM (inactive) | > 100 µM (inactive) | > 100 µM (inactive) | > 100 µM (inactive) | > 100 µM (inactive) | > 100 | > 100 µM (inactive) | > 100 µM (inactive) | > 100 µM (inactive) | > 100 µM (inactive) | > 100 µM (inactive) | > 100 µM (inactive) | > 100 µM (inactive) | > 100 µM (inactive) | – | – | – | – | –
COC(=O)C1CCC(=O)N1C(c1ccc(OC)cc1)c1cc(OC)c(OC)c(OC)c1 (stereo unspecified) | 0.292 µM (active) | – | 0.252 µM (active) | 0.52 µM (active) | 0.389 µM (active) | 0.381 | > 100 µM (inactive) | 0.18 µM (active) | 0.256 µM (active) | 0.39 µM (active) | 0.649 µM (active) | 0.274 µM (active) | 0.33 µM (active) | 0.0545 µM (active) | 0.057 µM (active) | 0.288 µM (active) | 0.307 µM (active) | 0.184 µM (active) | 3.24 µM (inactive)
COc1cc2c(cc1OC)[C@H]1C(COC(=O)Nc3ccccc3)CN1CC2 (stereo partly specified) | > 100 µM (inactive) | – | 53.8 µM (inactive) | > 100 µM (inactive) | 18.6 µM (inactive) | > 100 | > 100 µM (inactive) | 75.3 µM (inactive) | > 100 µM (inactive) | 95.5 µM (inactive) | > 100 µM (inactive) | > 100 µM (inactive) | > 100 µM (inactive) | 58.5 µM (inactive) | – | – | – | – | –
Cc1cc2oc(=O)[nH]c(=S)c2c(C)c1C | > 100 µM (inactive) | 48.2 µM (inactive) | – | > 100 µM (inactive) | > 100 µM (inactive) | > 100 | > 100 µM (inactive) | > 100 µM (inactive) | > 100 µM (inactive) | > 100 µM (inactive) | > 100 µM (inactive) | > 100 µM (inactive) | > 100 µM (inactive) | > 100 µM (inactive) | – | – | – | – | –
NC(CC(=O)OCc1ccccc1)C(=O)OCc1ccccc1 (stereo unspecified) | > 100 µM (inactive) | > 100 µM (inactive) | > 100 µM (inactive) | > 100 µM (inactive) | – | > 100 | > 100 µM (inactive) | > 100 µM (inactive) | – | – | > 100 µM (inactive) | > 100 µM (inactive) | > 100 µM (inactive) | – | > 100 µM (inactive) | > 100 µM (inactive) | > 100 µM (inactive) | 60.4 µM (inactive) | –
C/C(=N\N=C(N)N)c1sc(-c2nc(C)c(/C(C)=N/N=C(N)N)s2)nc1C | > 52.5 µM (inactive) | > 100 µM (inactive) | > 100 µM (inactive) | > 100 µM (inactive) | > 84.3 µM (inactive) | > 46 | > 100 µM (inactive) | > 45.6 µM (inactive) | > 67.8 µM (inactive) | > 57.9 µM (inactive) | > 100 µM (inactive) | > 100 µM (inactive) | > 62.5 µM (inactive) | > 45.4 µM (inactive) | – | – | – | – | –
COc1cc(CC2c3cc(OC)c(OC)cc3CCN2C)ccc1O (stereo unspecified) | – | > 100 µM (inactive) | > 100 µM (inactive) | > 100 µM (inactive) | > 100 µM (inactive) | > 100 | > 100 µM (inactive) | – | > 100 µM (inactive) | > 100 µM (inactive) | > 100 µM (inactive) | > 100 µM (inactive) | > 100 µM (inactive) | – | – | – | – | – | –
O[C@]12c3ccccc3C1CCCC2N1CCOCC1 (stereo partly specified) | > 100 µM (inactive) | > 100 µM (inactive) | > 100 µM (inactive) | > 100 µM (inactive) | > 100 µM (inactive) | > 100 | > 100 µM (inactive) | > 10 µM (inactive) | > 100 µM (inactive) | > 100 µM (inactive) | > 100 µM (inactive) | – | > 100 µM (inactive) | > 100 µM (inactive) | – | – | – | – | –
C=C(C)C1Cc2c(cc(OC)c3c(=O)c4ccccc4n(C)c23)O1 (stereo unspecified) | > 100 µM (inactive) | > 100 µM (inactive) | > 100 µM (inactive) | 58.3 µM (inactive) | 70 µM (inactive) | 83.6 | 49 µM (inactive) | > 100 µM (inactive) | 57.5 µM (inactive) | – | > 100 µM (inactive) | > 100 µM (inactive) | > 100 µM (inactive) | > 100 µM (inactive) | – | – | – | – | –
